Source: ChEMBL document CHEMBL5442741, “ASAP - In vitro kinase profile” (2024)
“And” between values parts separate entries of the source, which are not always exact repeats. Equal values may be shown once.

Legend:
[1] = target: Tyrosine-protein kinase ABL1 (Homo sapiens) (UniProt P00519); experiment: Enzymatic radiometric [Km ATP] KinaseProfiler LeadHunter assay, kinase: Abl, catalogue number: 14-529KP The assay has been performed by Eurofins Discovery.; conditions: ATP concentration 45.0 uM, Test compound concentration 10.0 uM
[2] = target: ALK tyrosine kinase receptor (Homo sapiens) (UniProt Q9UM73); experiment: Enzymatic radiometric [Km ATP] KinaseProfiler LeadHunter assay, kinase: ALK, catalogue number: 14-555KP The assay has been performed by Eurofins Discovery.; conditions: ATP concentration 200.0 uM, Test compound concentration 10.0 uM
[3] = target: Cyclin-dependent kinase 1/cyclin B (Homo sapiens) (UniProt P06493+P14635+Q8WWL7+O95067); experiment: Enzymatic radiometric [Km ATP] KinaseProfiler LeadHunter assay, kinase: CDK1/cyclinB, catalogue number: 14-450KP The assay has been performed by Eurofins Discovery.; assay type: protein-complex assay; conditions: ATP concentration 45.0 uM, Test compound concentration 10.0 uM
[4] = target: CDK7/Cyclin H/MNAT1 (Homo sapiens) (UniProt P51946+P50613+P51948); experiment: Enzymatic radiometric [Km ATP] KinaseProfiler LeadHunter assay, kinase: CDK7/cyclinH/MAT1, catalogue number: 14-476KP The assay has been performed by Eurofins Discovery.; assay type: protein-complex assay; conditions: ATP concentration 90.0 uM, Test compound concentration 10.0 uM
[5] = target: T1, Eukaryotic elongation factor 2 kinase (Homo sapiens) (UniProt O00418); experiment: Enzymatic radiometric [Km ATP] KinaseProfiler LeadHunter assay, kinase: eEF-2K, catalogue number: 14-654KP The assay has been performed by Eurofins Discovery.; conditions: ATP concentration 15.0 uM, Test compound concentration 10.0 uM
T1 sequence (whole entry): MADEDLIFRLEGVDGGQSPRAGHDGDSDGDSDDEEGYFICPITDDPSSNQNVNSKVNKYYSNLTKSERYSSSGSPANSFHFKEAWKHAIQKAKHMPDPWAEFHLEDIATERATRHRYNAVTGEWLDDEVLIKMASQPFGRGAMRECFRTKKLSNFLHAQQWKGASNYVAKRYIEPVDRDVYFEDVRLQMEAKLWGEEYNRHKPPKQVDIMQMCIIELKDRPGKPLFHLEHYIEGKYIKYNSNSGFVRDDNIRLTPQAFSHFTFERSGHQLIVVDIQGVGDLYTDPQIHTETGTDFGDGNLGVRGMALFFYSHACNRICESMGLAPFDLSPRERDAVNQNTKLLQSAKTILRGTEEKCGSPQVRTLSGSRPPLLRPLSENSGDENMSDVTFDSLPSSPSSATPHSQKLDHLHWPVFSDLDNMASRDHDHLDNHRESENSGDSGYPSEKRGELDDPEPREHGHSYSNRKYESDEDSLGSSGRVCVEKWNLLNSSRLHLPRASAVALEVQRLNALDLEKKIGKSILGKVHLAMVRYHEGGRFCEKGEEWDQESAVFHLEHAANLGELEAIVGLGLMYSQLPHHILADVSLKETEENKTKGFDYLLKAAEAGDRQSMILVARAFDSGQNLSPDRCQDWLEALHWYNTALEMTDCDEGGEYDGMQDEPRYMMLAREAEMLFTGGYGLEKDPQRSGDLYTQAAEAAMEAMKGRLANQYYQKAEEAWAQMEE

[6] = target: Tyrosine-protein kinase Fyn (Homo sapiens) (UniProt P06241); experiment: Enzymatic radiometric [Km ATP] KinaseProfiler LeadHunter assay, kinase: Fyn, catalogue number: 14-441KP The assay has been performed by Eurofins Discovery.; conditions: ATP concentration 70.0 uM, Test compound concentration 10.0 uM
[7] = target: Glycogen synthase kinase-3 beta (Homo sapiens) (UniProt P49841); experiment: Enzymatic radiometric [Km ATP] KinaseProfiler LeadHunter assay, kinase: GSK3-beta, catalogue number: 14-306KP The assay has been performed by Eurofins Discovery.; conditions: ATP concentration 15.0 uM, Test compound concentration 10.0 uM
[8] = target: Vascular endothelial growth factor receptor 2 (Homo sapiens) (UniProt P35968); experiment: Enzymatic radiometric [Km ATP] KinaseProfiler LeadHunter assay, kinase: KDR, catalogue number: 14-630KP The assay has been performed by Eurofins Discovery.; conditions: ATP concentration 90.0 uM, Test compound concentration 10.0 uM
[9] = target: Mitogen-activated protein kinase kinase kinase 9 (Homo sapiens) (UniProt P80192); experiment: Enzymatic radiometric [Km ATP] KinaseProfiler LeadHunter assay, kinase: MLK1, catalogue number: 14-690KP The assay has been performed by Eurofins Discovery.; conditions: ATP concentration 45.0 uM, Test compound concentration 10.0 uM
[10] = target: MAP kinase-interacting serine/threonine-protein kinase 2 (Homo sapiens) (UniProt Q9HBH9); experiment: Enzymatic radiometric [Km ATP] KinaseProfiler LeadHunter assay, kinase: Mnk2, catalogue number: 14-664KP The assay has been performed by Eurofins Discovery.; conditions: ATP concentration 120.0 uM, Test compound concentration 10.0 uM
[11] = target: Ribosomal protein S6 kinase alpha-4 (Homo sapiens) (UniProt O75676); experiment: Enzymatic radiometric [Km ATP] KinaseProfiler LeadHunter assay, kinase: MSK2, catalogue number: 14-616KP The assay has been performed by Eurofins Discovery.; conditions: ATP concentration 45.0 uM, Test compound concentration 10.0 uM
[12] = target: Ribosomal protein S6 kinase beta-1 (Homo sapiens) (UniProt P23443); experiment: Enzymatic radiometric [Km ATP] KinaseProfiler LeadHunter assay, kinase: p70S6K, catalogue number: 14-486KP The assay has been performed by Eurofins Discovery.; conditions: ATP concentration 15.0 uM, Test compound concentration 10.0 uM
[13] = target: Serine/threonine-protein kinase PLK3 (Homo sapiens) (UniProt Q9H4B4); experiment: Enzymatic radiometric [Km ATP] KinaseProfiler LeadHunter assay, kinase: Plk3, catalogue number: 14-572KP The assay has been performed by Eurofins Discovery.; conditions: ATP concentration 70.0 uM, Test compound concentration 10.0 uM
[14] = target: PI3-kinase p110-delta/p85-alpha (Homo sapiens) (UniProt P27986+O00329); experiment: Enzymatic radiometric [Km ATP] KinaseProfiler LeadHunter assay, kinase: PI3 Kinase (p110-delta/p85-alpha), catalogue number: 14-604KP The assay has been performed by Eurofins Discovery.; assay type: protein-complex assay; conditions: ATP concentration 200.0 uM, Test compound concentration 10.0 uM

Sequence of MAP kinase-interacting serine/threonine-protein kinase 2 (Homo sapiens) (Q9HBH9 whole entry, looked up): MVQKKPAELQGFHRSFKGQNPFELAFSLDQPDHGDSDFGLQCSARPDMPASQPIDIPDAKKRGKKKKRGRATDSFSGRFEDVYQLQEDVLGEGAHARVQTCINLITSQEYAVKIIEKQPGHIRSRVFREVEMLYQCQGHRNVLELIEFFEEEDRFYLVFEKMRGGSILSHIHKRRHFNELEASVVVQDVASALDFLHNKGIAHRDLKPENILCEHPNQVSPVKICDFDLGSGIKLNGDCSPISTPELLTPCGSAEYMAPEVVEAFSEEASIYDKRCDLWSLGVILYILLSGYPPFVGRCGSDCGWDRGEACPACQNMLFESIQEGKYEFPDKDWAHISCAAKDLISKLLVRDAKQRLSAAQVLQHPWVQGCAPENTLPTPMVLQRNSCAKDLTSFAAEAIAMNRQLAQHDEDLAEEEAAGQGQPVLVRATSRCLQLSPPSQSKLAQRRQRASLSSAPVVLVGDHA
Sequence of Ribosomal protein S6 kinase beta-1 (Homo sapiens) (P23443 whole entry, looked up): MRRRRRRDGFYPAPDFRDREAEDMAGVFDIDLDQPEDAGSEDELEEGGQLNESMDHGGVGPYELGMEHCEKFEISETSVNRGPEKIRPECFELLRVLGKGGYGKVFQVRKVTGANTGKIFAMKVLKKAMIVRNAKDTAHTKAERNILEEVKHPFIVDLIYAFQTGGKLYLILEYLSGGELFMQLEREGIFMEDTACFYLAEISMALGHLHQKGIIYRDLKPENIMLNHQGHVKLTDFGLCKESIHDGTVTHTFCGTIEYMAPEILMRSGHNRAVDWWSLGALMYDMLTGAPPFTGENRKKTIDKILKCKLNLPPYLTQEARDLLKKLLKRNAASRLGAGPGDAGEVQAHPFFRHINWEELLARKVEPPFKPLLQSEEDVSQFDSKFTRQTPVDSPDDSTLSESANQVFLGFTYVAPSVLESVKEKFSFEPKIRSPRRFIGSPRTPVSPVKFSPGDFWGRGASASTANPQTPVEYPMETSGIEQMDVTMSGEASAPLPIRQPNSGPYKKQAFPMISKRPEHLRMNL
Sequence of ALK tyrosine kinase receptor (Homo sapiens) (Q9UM73 19-1620 limits assumed): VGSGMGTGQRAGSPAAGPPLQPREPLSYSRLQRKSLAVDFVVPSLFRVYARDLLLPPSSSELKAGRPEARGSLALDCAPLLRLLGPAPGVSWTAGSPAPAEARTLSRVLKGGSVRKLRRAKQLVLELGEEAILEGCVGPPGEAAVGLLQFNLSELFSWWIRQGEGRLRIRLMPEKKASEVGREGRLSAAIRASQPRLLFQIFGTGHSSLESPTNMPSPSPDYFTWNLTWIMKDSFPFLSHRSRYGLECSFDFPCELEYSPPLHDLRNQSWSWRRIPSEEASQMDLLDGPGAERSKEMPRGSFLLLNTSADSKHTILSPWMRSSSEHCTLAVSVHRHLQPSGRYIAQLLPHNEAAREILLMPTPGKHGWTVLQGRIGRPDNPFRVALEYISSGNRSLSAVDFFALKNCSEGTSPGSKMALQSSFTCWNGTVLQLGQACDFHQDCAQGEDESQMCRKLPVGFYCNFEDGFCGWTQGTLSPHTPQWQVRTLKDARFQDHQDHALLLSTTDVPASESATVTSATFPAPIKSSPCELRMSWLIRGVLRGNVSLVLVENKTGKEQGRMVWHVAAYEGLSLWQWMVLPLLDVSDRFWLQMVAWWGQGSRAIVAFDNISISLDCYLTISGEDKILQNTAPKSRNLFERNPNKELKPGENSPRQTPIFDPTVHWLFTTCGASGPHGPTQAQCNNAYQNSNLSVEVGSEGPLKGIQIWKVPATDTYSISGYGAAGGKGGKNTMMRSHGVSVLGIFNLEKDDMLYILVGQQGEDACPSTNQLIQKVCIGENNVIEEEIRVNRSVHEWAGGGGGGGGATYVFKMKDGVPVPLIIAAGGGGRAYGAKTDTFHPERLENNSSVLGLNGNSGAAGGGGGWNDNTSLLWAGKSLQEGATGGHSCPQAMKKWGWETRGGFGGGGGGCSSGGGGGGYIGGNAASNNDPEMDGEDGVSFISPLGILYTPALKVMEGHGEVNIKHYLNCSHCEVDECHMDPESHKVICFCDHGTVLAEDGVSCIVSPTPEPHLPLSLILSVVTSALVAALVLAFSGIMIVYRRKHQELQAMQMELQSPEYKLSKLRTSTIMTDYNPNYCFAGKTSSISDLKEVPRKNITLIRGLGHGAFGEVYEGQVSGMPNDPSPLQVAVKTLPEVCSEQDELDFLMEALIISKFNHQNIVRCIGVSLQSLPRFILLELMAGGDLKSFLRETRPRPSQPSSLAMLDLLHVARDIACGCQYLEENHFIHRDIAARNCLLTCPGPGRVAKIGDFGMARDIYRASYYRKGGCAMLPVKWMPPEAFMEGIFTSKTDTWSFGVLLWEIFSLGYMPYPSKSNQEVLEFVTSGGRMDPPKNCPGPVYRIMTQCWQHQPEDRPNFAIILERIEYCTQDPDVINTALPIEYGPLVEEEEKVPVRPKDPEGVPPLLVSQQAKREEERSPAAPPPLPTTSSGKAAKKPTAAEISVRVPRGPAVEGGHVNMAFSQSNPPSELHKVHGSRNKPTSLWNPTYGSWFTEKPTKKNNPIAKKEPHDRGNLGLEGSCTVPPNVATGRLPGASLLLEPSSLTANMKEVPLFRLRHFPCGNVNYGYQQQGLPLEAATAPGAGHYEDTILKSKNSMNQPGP
Sequence of Mitogen-activated protein kinase kinase kinase 9 (Homo sapiens) (P80192 whole entry, looked up): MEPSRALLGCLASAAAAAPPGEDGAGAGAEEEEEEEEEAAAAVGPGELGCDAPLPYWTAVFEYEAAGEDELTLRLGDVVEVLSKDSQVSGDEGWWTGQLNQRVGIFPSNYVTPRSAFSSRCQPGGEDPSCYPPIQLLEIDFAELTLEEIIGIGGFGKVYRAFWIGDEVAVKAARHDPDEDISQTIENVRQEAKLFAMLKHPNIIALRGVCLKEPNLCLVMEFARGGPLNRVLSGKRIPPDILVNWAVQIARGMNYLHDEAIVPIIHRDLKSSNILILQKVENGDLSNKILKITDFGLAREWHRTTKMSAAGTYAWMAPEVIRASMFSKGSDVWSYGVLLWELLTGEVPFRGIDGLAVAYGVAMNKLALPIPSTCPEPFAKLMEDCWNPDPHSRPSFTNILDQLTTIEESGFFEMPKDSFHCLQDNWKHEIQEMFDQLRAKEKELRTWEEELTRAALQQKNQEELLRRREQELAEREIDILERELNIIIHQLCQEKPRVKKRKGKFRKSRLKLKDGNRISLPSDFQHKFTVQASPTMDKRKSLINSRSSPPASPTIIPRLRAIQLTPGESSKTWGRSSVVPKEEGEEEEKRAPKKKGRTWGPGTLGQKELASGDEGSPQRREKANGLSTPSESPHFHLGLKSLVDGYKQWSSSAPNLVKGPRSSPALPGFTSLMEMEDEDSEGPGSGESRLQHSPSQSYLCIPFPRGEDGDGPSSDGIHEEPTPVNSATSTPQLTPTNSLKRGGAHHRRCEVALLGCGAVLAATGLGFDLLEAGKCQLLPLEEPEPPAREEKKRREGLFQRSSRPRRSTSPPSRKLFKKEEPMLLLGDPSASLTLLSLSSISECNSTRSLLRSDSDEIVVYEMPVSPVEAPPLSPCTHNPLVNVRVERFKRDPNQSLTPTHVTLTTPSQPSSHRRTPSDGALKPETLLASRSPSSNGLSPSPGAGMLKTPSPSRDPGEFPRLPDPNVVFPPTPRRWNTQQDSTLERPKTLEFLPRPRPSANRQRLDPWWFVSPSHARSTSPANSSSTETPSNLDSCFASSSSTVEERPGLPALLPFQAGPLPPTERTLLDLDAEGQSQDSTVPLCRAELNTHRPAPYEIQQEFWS
Sequence of Glycogen synthase kinase-3 beta (Homo sapiens) (P49841 whole entry, looked up): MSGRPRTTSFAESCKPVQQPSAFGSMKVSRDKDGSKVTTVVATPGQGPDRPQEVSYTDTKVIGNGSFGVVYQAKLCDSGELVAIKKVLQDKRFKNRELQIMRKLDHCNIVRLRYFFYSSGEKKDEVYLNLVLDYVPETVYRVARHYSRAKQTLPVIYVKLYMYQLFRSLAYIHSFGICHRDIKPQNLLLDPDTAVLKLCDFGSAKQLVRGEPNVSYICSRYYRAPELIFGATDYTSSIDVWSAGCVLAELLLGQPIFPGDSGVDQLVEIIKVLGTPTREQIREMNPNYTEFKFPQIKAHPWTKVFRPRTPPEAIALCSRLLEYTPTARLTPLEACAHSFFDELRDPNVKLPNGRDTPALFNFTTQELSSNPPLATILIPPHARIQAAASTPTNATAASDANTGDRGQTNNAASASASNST
Sequence of Serine/threonine-protein kinase PLK3 (Homo sapiens) (Q9H4B4 whole entry, looked up): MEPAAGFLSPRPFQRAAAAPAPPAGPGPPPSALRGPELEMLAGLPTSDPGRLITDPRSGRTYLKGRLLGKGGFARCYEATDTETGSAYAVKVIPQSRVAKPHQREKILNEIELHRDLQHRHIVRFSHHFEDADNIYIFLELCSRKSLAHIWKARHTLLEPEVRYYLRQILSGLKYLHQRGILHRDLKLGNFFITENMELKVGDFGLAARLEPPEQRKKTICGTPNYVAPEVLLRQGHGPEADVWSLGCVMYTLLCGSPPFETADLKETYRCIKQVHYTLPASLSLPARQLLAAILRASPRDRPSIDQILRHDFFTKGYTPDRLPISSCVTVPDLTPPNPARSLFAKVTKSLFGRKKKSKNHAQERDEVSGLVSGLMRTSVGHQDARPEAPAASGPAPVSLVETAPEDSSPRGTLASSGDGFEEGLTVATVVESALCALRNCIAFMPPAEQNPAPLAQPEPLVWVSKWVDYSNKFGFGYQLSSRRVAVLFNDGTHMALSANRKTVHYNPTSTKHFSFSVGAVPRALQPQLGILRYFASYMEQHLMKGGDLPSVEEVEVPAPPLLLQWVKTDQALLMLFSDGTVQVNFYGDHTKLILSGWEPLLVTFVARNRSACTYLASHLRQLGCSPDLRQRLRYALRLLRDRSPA

SMILES | Activity [1] | Activity [2] | Activity [3] | Activity [4] | Activity [5] | Activity [6] | Activity [7] | Activity [8] | Activity [9] | Activity [10] | Activity [11] | Activity [12] | Activity [13] | Activity [14]
Cn1ncc(-c2cc3c(N[C@@H](c4ccc5c(n4)OCCO5)C(C)(C)C)ncnc3[nH]2)c1C#N | 81% | 117% | 97% | 108% | 124% | 82% | 98% | 83% | 94% | 100% | 122% | 108% | 77% | 73%
CC(C)[C@@H](Nc1ncnc2[nH]ccc12)c1ccc2c(c1)S(=O)(=O)CCC2 | 93% | 93% | 129% | 85% | 92% | 127% | 107% | 82% | 81% | 89% | 99% | 98% | 103% | 101%
CNC(=O)Cn1cc(-c2cc3c(N[C@@H](c4ccc5c(c4)S(=O)(=O)CCC5)C(C)C)ncnc3[nH]2)cn1 | 72% | 95% | 88% | 95% | 94% | 65% | 98% | 91% | 89% | 94% | 92% | 100% | 98% | 87%
CNCc1cc(-c2cc3c(N[C@@H](c4ccc5c(c4)S(=O)(=O)CCC5)C(C)C)ncnc3[nH]2)co1 | 51% | 99% | 97% | 100% | 82% | 64% | 92% | 88% | 86% | 94% | 91% | 110% | 124% | 80%
CC(C)[C@@H](Nc1ncnc2[nH]c(C(=O)N[C@@H]3CCN(C)C3)cc12)c1ccc2c(c1)S(=O)(=O)CCC2 | 100% | 106% | 103% | 101% | 89% | 107% | 93% | 96% | 96% | 99% | 93% | 104% | 98% | 99%
CC(C)[C@H](Nc1ncnc2[nH]c(-c3cnn(C)c3C#N)cc12)c1ccc2c(n1)OCCO2 | 57% | 116% | 89% | 98% | 108% | 80% | 98% | 76% | 73% | 95% | 114% | 125% | 102% | 66%
CC(C)[C@@H](Nc1ncnc2[nH]c(-c3cnn(C)c3C#N)cc12)c1ccc2c(n1)OCCO2 | 52% and 57% | 103% and 106% | 95% and 88% | 101% and 102% | 111% and 106% | 56% and 55% | 85% and 101% | 80% and 86% | 81% and 82% | 77% and 83% | 103% and 122% | 82% and 106% | 90% and 89% | 55% and 61%
Cc1nn(C)cc1-c1cc2c(N[C@H](c3ccc4c(c3)S(=O)(=O)CCC4)C(C)C)ncnc2[nH]1 | 76% | 99% | 91% | 93% | 98% | 32% | 96% | 88% | 79% | 99% | 105% | 108% | 104% | 101%

More lines, now with the values ahead:

Activity [1] | Activity [2] | Activity [3] | Activity [4] | Activity [5] | Activity [6] | Activity [7] | Activity [8] | Activity [9] | Activity [10] | Activity [11] | Activity [12] | Activity [13] | Activity [14] | SMILES
102% | 106% | 98% | 107% | 96% | 102% | 90% | 97% | 87% | 115% | 103% | 113% | 102% | 97% | COc1ccc([C@H](Cc2nnn[nH]2)NC(=O)c2ncnc3[nH]ccc23)cc1
98% | 95% | 108% | 91% | 96% | 105% | 105% | 79% | 85% | 84% | 92% | 81% | 102% | 99% | COc1ccc([C@@H](Cc2nnn[nH]2)NC(=O)c2ncnc3[nH]ccc23)cc1
105% | 100% | 93% | 89% | 93% | 96% | 94% | 86% | 84% | 98% | 92% | 103% | 112% | 99% | CC(C)[C@H](Nc1ncnc2[nH]ccc12)c1ccc2c(c1)S(=O)(=O)CCC2
97% | 99% | 92% | 99% | 85% | 98% | 93% | 77% | 86% | 110% | 90% | 97% | 98% | 97% | C[C@H](C(=O)O)[C@@H](NC(=O)c1ncnc2[nH]ccc12)c1ccc(Br)cc1
